# Tests used:
# T. cruzi [1] = assay: T. cruzi intracellular amastigote (AM) in-vitro screen; format: cell-based
# T. cruzi [2] = assay: T. cruzi mouse model, in-vivo
# Excerpt: (§1) In-vitro and in-vivo models were used to test activities of a selection of many compounds. Those activities are summarized in Tables 1-3, showing variation between systems and species. Activities measured in the MP mo and HM mo models have shown the best correlation with results obtained in hamster and mouse models.
# L donovani [3] = assay: Amastigotes (AM) in mouse or human macrophages (mos), in-vitro; format: cell-based; details: Ld., Amastigote
# Excerpt: (§2) Amastigotes of Leishmania can be cultivated in a wide range of mammalian cells, some of which may be used in in-vitro screens. These include (1) a Sticker dog sarcoma (fibroblast) cell line, (2) transformed rodent macrophage cell lines, (3) primary isolated mouse peritoneal macrophages (MP mo), and (4) human monocyte-derived macrophages (HM mo). The methods are similar for all models. Amastigote or promastigote infected cells are maintained in a medium containing the drug for 4-7 days, at 37 C for L. donovani and 33-35 C for L. major and L. mexicana. Drug activity is then assessed by counting (I) the number of infected host cells and/or (II) the number of amastigotes/100 host cells.
# as §1
# L major/L mexicana [4] = assay: as above; format: cell-based; details: Lm., Amastigote
# Excerpt: as §2, §1
# L donovani [5] = assay: Leishmania mouse/hamster models, in-vivo; details: Ld. Note: key: - no/poor activity,; + fair/moderate activity,; ++ good/excellent activity.
# Excerpt: as §1
# L major/L mexicana [6] = assay: Amastigote-promastigote (AM-PRO) transformation, in-vitro; format: cell-based; details: Lm.
# [7] = test system: T.b. brucei, T.b. gambiense and T.b. rhodesiense; assay: Procyclic trypomastigote (TRY) in-vitro screen; format: cell-based; note: key: - no/poor activity,; + fair/moderate activity,; ++ good/excellent activity
# Procedure: (§3) Primary screening for new trypanocides has made extensive use of rodent systems, in which host survival time is a simple indicator of drug activity. In-vitro screens have used a variety of trypomastigote types (see Table 3, below). […] Most early in-vitro screens employed a short test in which bloodstream trypomastigotes were isolated from an infected rodent and maintained for up to 24 h in a simple drug-containing media. Two significant modifications of this technique include maintaining isolated bloodstream trypomastigotes in drug-containing media for 3-4 hours at 37° C in micro-titre plates and their subsequent viability assessed by the uptake of radiolabelled precursors or motility and infectivity to mice.
# as §1
# [8] = test system: T.b. brucei, T.b. gambiense and T.b. rhodesiense; assay: Isolated bloodstream trypomastigote (TRY) in-vitro screen; format: cell-based
# Procedure: as §3
# In-vitro studies on isolated bloodstream trypomastigotes were also used in the rational biochemical approaches towards the chemotherapy of T. brucei infections involving inhibitors of carbohydrate catabolism salicyl hydroxamic acid plus glycerol), of polyamine synthesis (methylgyoxal bis-guanylhydrazone and - DFMO), and of surface coat glycoprotein synthesis (Tunicamycin). In these studies, activity of the compounds are shown in-vitro and in-vivo, whereas the sensitivity of isolated bloodstream trypomastigotes to toxic oxygen radicals generated by naphthoquinones was not shown by the parasites in mice. The activity of the standard anti-trypanosomals-melarsoprol, pentamidine and suramin and tested compounds according to the present invention in in-vitro systems is shown in Table 3.
# as §1
# [9] = test system: T.b. brucei, T.b. gambiense and T.b. rhodesiense; assay: Cultivated bloodstream trypomastigote (TRY) in-vitro screen; format: cell-based
# Excerpt: Culture systems developed in the last decade have used mammalian cell feeder layers to support the growth of dividing populations of bloodstream trypomastigotes of T. brucei spp. Some of these systems have been used in chemotherapy studies, including; (1) bovine fibroblast culture - T. brucei models to test some standard and experimental compounds, (2) murine bone marrow culture - T.b. gambiense model to screen inosine analogues and platinum and hypolipidemic compounds, and (3) Microtus embryonic fibroblast culture (MEF) - T.b. rhodesiense model to test standard and experimental drugs. These systems give a good indication of in-vivo activity (see Table 3). They measure activity against dividing cells rather than specific macromolecular synthesis pathways and can be readily established in micro-titre plates. The MEF and bone marrow cell feeder layers can be used to grow a range of strains of T. brucei spp., offering the possibility of examining variations in drug susceptibility and resistance between strains. The presence of a feeder layer, however, limits the opportunities for the automation of these systems.
# as §1
# [10] = test system: T.b. brucei, T.b. gambiense and T.b. rhodesiense; assay: African trypanosomiasis mouse model, in-vivo
# Procedure: as §3, §1
# HIV-I = assay: Experiment la(a): macrophage cells, HIV-I, p24 antigen capture radio-immunoassay; format: cell-based; details: for TITER: control titer 100000; for wells positive for HIV-I p24, LOG VIRUS DILUTION -1 / wells positive for HIV-I p24, LOG VIRUS DILUTION -2 / wells positive for HIV-I p24, LOG VIRUS DILUTION -3 / wells positive for HIV-I p24, LOG VIRUS DILUTION -4 / wells positive for HIV-I p24, LOG VIRUS DILUTION -5 / wells positive for HIV-I p24, LOG VIRUS DILUTION -6: duplicate runs
# Procedure: Fresh macrophage cultures were obtained by incubation of mononuclear cells obtained from a leukopak directly in the wells of a microtiter plate having 6 wells per row. After removal of non-adherent cells, each row of the adherent macrophages was infected with 10-fold serial dilutions of HIV-I, with the use of polybrene to enhance uptake of the virus. After one to two hours, the virus inoculum was removed and replaced with fresh normal growth medium. The fresh medium for each row contained a particular concentration of AZT, dideoxy cytidine (ddC), or compound la, as indicated by the left-hand column of Table la(a). The first row of wells acted as a control, and to it was added fresh medium containing none of the three drugs. Medium levels were maintained for two to four weeks to allow replication of the virus to take place, with at least one complete fluid change to remove residual virus inoculum. The contents of each well were then tested for the level of HIV p24 antigen present using a commercially available antigen capture kit employing a radio-immunoassay which can detect as little as 10'^9gm of p24 present in a sample. The above procedure was done in duplicate runs.
# The results were interpreted as follows: 2/2, for example, means that both the corresponding wells of both runs were positive for HIV-I p24, while 0/2 means that neither well was positive. The titers are given in the next to last column; where 1/2 wells was positive, an intermediate value was given to the titer that is half way between the two dilutions when calculated on a logarithmic scale. 3 µM IPA was positive in both wells at a dilution of 1/10,000 and in neither well at 1/100,000. Thus, one half log interval between 10^4 and 10^5 is 10^4.5, or 30,000.
# T lymphocytes = assay: Lymphocyte blastogenesis assay, T lymphocytes (PHA); format: cell-based, human; details: 100 - 1 µM (Figs. 11 and 12)
# Procedure: (§4) T and B lymphocytes from normal human donors were incubated for 30 minutes at various dose levels of the compounds indicated. The lymphocytes were added in triplicate wells in gentamicin and phytohemagglutinin (PHA) (a T cell mitogen), pokeweed mitogen (PWM) (a B cell mitogen) and allogeneic mononuclear cells (mixed leukocyte cultures; MLC) or media containing the above additives. The lymphocyte blastogenesis assay is described in detail below.
# (§5) The data are represented as the mean of the three replicates. The results are presented in Charts la(e) (i) and la(e) (ii) (Figs. 1 and 2). […] A reduction of both T lymphocytes' abilities to proliferate was obtained when 100 u.M or greater concentrations of IPA was added to the cell cultures. Proliferative activity of T lymphocytes by 25% at the 30 u.M concentration of IPA in the experiment.
# (§6) • 1. Mononuclear cells are separated from whole blood by differential centrifugation using a synthetic separation medium, or are thawed from a cryopreserved preparation. The cells are washed and resuspended in media (RPMI - 1640, L-Glutamine 2mM, Herpes Buffer 25mM, Gentamicin 50 ug/ml, Human AB Serum-heat inactivated (56°, 30°) 20%). • 2. A viable cell count is determined. • 3. Cell concentration is adjusted to 2 x 10^6 /ml in media. • 4. The cell suspension is added to wells of a 96-well flat bottom plate in 0.1 ml aliquots (2 x 10^5 cells). • 5. The selected mitogens and/or antigens (in media without serum) are added to the cells in the wells also in 0.1 ml aliquots. • 6. The cultures are incubated for 3-7 days (depending upon the mitogen or antigen) at 37° C in a humidified 5% C02 atmosphere. • 7. Six to eight hours before termination of cultures 0.05 ml (1 µCi) of ^3HTdR sp. act 6.7 Ci/mM (20 µCi/ml stock) is added to each well. • 8. At termination of cultures the cells are harvested onto strips of scintillation-grade fibreglass paper using a multiple sample harvester. • 9. Perforated disks from the fibreglass paper of the harvested cultures are placed each into scintillation vials to which is then added 5 ml of toluene based scintillation cocktail. • 10. The vials are counted in a liquid scintillation counter for one minute where the amount of incorporated ^3HTdR is determined.
# (§7) net CPM = xCPM of mitogen/antigen cultures - xCPM of media cultures.
# B lymphocytes = assay: Lymphocyte blastogenesis assay, B lymphocytes (PWM); format: cell-based, human
# Procedure: as §4, §5, §6, §7
smiles,measurement,setting,value
"CC1CS(=O)(=O)CCN1/N=C/c1ccc([N+](=O)[O-])o1 (centres unmarked) [Nifurtimox, nifurtimox]","activity, intracellular AM",T. cruzi [1]; T. cruzi strain Sonya,"++(Y,WBH, Sonya)"
same,"activity, intracellular AM",T. cruzi [1]; T. cruzi strain WBH,"++(Y,WBH, Sonya)"
same,"activity, intracellular AM",T. cruzi [1]; T. cruzi strain Y,"++(Y,WBH, Sonya)"
same,"activity, mouse model",T. cruzi [2]; T. cruzi strain CL,++ and +
same,"activity, mouse model",T. cruzi [2]; T. cruzi strain Sonya,+
same,"activity, mouse model",T. cruzi [2]; T. cruzi strain Tu,+
same,"activity, mouse model",T. cruzi [2]; T. cruzi strain WBH,++
same,"activity, mouse model",T. cruzi [2]; T. cruzi strain Y,++ and +
"O.O.O.O.O.O.O.O.O.O=C([O-])[C@@H]1[O][Sb]2([O-])([O][Sb]34([OH])[O][C@H]([C@H](O)CO)[C@H]([O]3)[C@H](C(=O)[O-])[O]4)[O][C@H]([C@H](O)CO)[C@@H]1[O]2.[Na+].[Na+].[Na+] [Sodium stibogluconate, sodium stibogluconate, reference compound]","Activity, AM in mouse or human mos",L donovani [3],+ +
same,"Activity, AM in mouse or human mos",L major/L mexicana [4],+ +
same,"Activity, mouse/ hamster models",L donovani [5],+ +
same,"Activity, AM-PRO transform-ation",L major/L mexicana [6],+ +
"Cc1ccc(C(=O)Nc2ccc(S(=O)(=O)O)c3cc(S(=O)(=O)O)cc(S(=O)(=O)O)c23)cc1NC(=O)c1cccc(NC(=O)Nc2cccc(C(=O)Nc3cc(C(=O)Nc4ccc(S(=O)(=O)O)c5cc(S(=O)(=O)O)cc(S(=O)(=O)O)c45)ccc3C)c2)c1 [Suramin, suramin, reference compound]","activity, procyclic TRY",[7],-
same,"activity, isolated bloodstream TRY",[8],"-,+"
same,"activity, cultivated bloodstream TRY",[9],+
same,"activity, mouse model",[10],+ +
"Nc1ccn([C@H]2CC[C@@H](CO)O2)c(=O)n1 [ddC, dideoxycytidine, reference compound]",activity at 10 µM,"HIV-I; Human immunodeficiency virus 1, Macrophage, drug 10 μM, titer relative to control, read-out: PERCENT OF CONTROL",10%
same,activity at 100 µM,"HIV-I; Human immunodeficiency virus 1, Macrophage, drug 100 μM, titer relative to control, read-out: PERCENT OF CONTROL",3%
same,TITER,HIV-I; drug 10 μM,10000
same,"wells positive for HIV-I p24, LOG VIRUS DILUTION -1",HIV-I; drug 10 μM,2/2
same,"wells positive for HIV-I p24, LOG VIRUS DILUTION -2",HIV-I; drug 10 μM,2/2
same,"wells positive for HIV-I p24, LOG VIRUS DILUTION -3",HIV-I; drug 10 μM,2/2
same,"wells positive for HIV-I p24, LOG VIRUS DILUTION -4",HIV-I; drug 10 μM,1/2
same,"wells positive for HIV-I p24, LOG VIRUS DILUTION -5",HIV-I; drug 10 μM,0/2
same,"wells positive for HIV-I p24, LOG VIRUS DILUTION -6",HIV-I; drug 10 μM,0/2
same,TITER,HIV-I; drug 100 μM,3000
same,"wells positive for HIV-I p24, LOG VIRUS DILUTION -1",HIV-I; drug 100 μM,2/2
same,"wells positive for HIV-I p24, LOG VIRUS DILUTION -2",HIV-I; drug 100 μM,2/2
same,"wells positive for HIV-I p24, LOG VIRUS DILUTION -3",HIV-I; drug 100 μM,2/2
same,"wells positive for HIV-I p24, LOG VIRUS DILUTION -4",HIV-I; drug 100 μM,0/2
same,"wells positive for HIV-I p24, LOG VIRUS DILUTION -5",HIV-I; drug 100 μM,0/2
same,"wells positive for HIV-I p24, LOG VIRUS DILUTION -6",HIV-I; drug 100 μM,0/2
same,reduction in T lymphocyte function,T lymphocytes,10 - 25%
same,reduction in B lymphocyte proliferative responses,B lymphocytes; 1 µM,20 -35%
same,reduction in B lymphocyte proliferative responses,B lymphocytes; 1000 u.M,80 to 85%

# — patent EP0462621A2, “Use of particular compounds for manufacture of pharmaceutical formulations for treatment against various parasites, mycoplasmas, other indications and other infections” (Prendergast, Patrick Thomas, priority 1990, dated 1991)
